Test [1] concerns primary cells of intestinal cancer. Nature of the test: Effect of different concentrations of factors in CA-1 medium on proliferation (ratio of cell number to Blank Control). Format: cell-based, human.
Test [2] shares this test system. Nature of the test: Effect of single additives in Basic Medium on proliferation of primary cells of intestinal cancer (cell count). Format: cell-based, human. More on the design: key: +: compared with the Basic Medium, the medium added with the additive(s) has the effect of promoting the proliferation of primary cells of intestinal cancer isolated from intestinal cancer tissue in at least two cases; −: the medium added with the additive(s) has the effect of inhibiting the proliferation of primary cells of intestinal cancer isolated from intestinal cancer tissue in at least one case; ∘: the medium added with the additive(s) has no significant effect on the proliferation of primary cells of intestinal cancer isolated from intestinal cancer tissue in at least two cases. The procedure:
First, Basic Medium was prepared. The formulation of Basic Medium is: DMEM/F12 medium (purchased from Corning)+5 μM Y27632 (purchased from MCE)+5% (v/v) fetal bovine serum (purchased from Excell Bio)+100 μg/mL Primocin (purchased from InvivoGen, 0.2% (v/v), the concentration of commercial product is 50 mg/ml).
Different types of additives (see Table 1) were added to the Basic Medium to prepare the culture mediums for primary cells of intestinal cancer containing different components.
The culture mediums of different components as shown in Table 1 were added into a 48-well plate at a volume of 1 mL/well. Primary cells of intestinal cancer isolated from two cases of intestinal cancer tissues (numbered OE0042 and OE(E)003) according to the above step (2) were inoculated into the 48-well culture plate at a cell density of 3×10^4 cells/well, and were cultured at 37° C., under 5% CO2 concentration. After culturing for 7-10 days, when the cells grew to 85%, the culture medium was discarded, and 100 μL/well of 0.05% trypsin (purchased from Gibco) was used to rinse the cells once. After the trypsin was removed, 200 μL of 0.05% trypsin was added to each well. The plate was then placed in a 37° C., 5% CO2 incubator for 10 minutes, and the cells were observed under a microscope (CNOPTEC, BDS400), showing that the cells had completely digested. 300 μL of DMEM/F12 medium containing 10% serum (Excell Bio, FND500) was added to stop the digestion. 20 μL of the resultant was added into a cell counting plate (Countstar, specification: 50 pieces/box), and the total number of cells was counted with a cell counter (Countstar, IC1000). Specifically, Basic Medium without any additives was used as an experimental control, and the experimental results are shown in Table 1.

[3] abbreviates: according to proliferation ratio vs Blank Control, FIGS. 2A-2J.
The mark [4] stands for this setting: additive at the final concentration in Basic Medium, samples OE0042 and OE(E)003, 7-10 days, compared with Basic Medium.

Where two headings read alike, the source gives them in different places.

As for `Cc1cccc(-c2nn(C(=S)Nc3ccccc3)cc2-c2ccnc3ccccc23)n1` [A8301, reference compound], the “amount in culture medium, more preferably” value in test [1] (setting [3]) is listed as 200 nM. For the same molecule, the “Level of promoting cell proliferation” value in test [2] (setting [4]) is listed as “−”.
Regarding `Oc1ccc(-c2nc(-c3ccncc3)c(-c3ccc(F)cc3)[nH]2)cc1` [SB202190, reference compound], the “Level of promoting cell proliferation” value in test [2] (setting [4]) is “∘”.
In the case of `C[C@@H](N)[C@H]1CC[C@H](C(=O)Nc2ccncc2)CC1` [Y-27632, reference compound], in test [1] (setting [3]), the “amount in culture medium, even more preferably” value amounted to 5 µM and the “amount in culture medium, preferably” value is 2.5 to 40 µM.
Consider `NC(=O)CC[C@H](N)C(=O)O` [glutamine, reference compound], for which, in test [2] (setting [4]), the “Level of promoting cell proliferation” value was “−”.
The same measure, in the same setting: with `C[C@]12CCC(=O)C=C1CC[C@@H]1[C@@H]2[C@@H](O)C[C@@]2(C)[C@H]1CC[C@]2(O)C(=O)CO` [hydrocortisone, reference compound] the entry was “∘”.
For `NC(=O)c1cccnc1` [nicotinamide, reference compound], in test [1] (setting [3]), the “amount in the culture medium, even more preferably” value amounted to 4 mM; the “amount in the culture medium, more preferably” value was in the range of 4 to 8 mM; the “amount in the culture medium, preferably” value was 2 to 8 mM. Also, the “Level of promoting cell proliferation” value in test [2] (setting [4]) is listed as “+”.
`CCCCC[C@H](O)/C=C/[C@H]1[C@H](O)CC(=O)[C@@H]1C/C=C\CCCC(=O)O` [prostaglandin E2, reference compound]: the “Level of promoting cell proliferation” value in test [2] (setting [4]) is listed as “−”.
As for TGF-β1: medium additive from R&D, the “Level of promoting cell proliferation” value in test [2] (setting [4]) is listed as “−”.
On the same count and under the same terms, then “basic fibroblast growth factor: medium additive, growth factor from R&D”, with “−”.
Consider cholera toxin, for which the “amount in culture medium, even more preferably” value in test [1] was determined as 5 ng/mL. In test [2], the “Level of promoting cell proliferation” value is “+”.
Regarding “epidermal growth factor: medium additive, growth factor from R&D (NSDSECPLSHDGYCLHDGVCMYIEALDKYACNCVVGYIGERCQYRDLKWWELR; Epidermal growth factor; UniProt P01133 971-1023, looked up)”, the “Level of promoting cell proliferation” value in test [2] (setting [4]) was “∘”.
On the same count and under the same terms, then “hepatocyte growth factor: medium additive, growth factor from Peprotech”, with “∘”.
Take “insulin-like growth factor-1: medium additive, growth factor from R&D”: in test [1] (setting [3]), the “amount in culture medium, more preferably” value came to 45 ng/mL and the “amount in culture medium, preferably” value lay in the range of 5 to 405 ng/mL. The “Level of promoting cell proliferation” value in test [2] (setting [4]) is “+”.
insulin: medium additive from Peprotech: in test [1] (setting [3]), the “amount in culture medium, even more preferably” value is 2000 ng/mL; the “amount in culture medium, more preferably” value lay in the range of 1000 to 2000 ng/mL; the “amount in culture medium, preferably” value fell in the range of 500 to 4000 ng/mL. In test [2] (setting [4]), the “Level of promoting cell proliferation” value was “+”.

(Values after patent US12590951B2, “Culture medium and culture method for primary cells of intestinal cancer” (PRECEDO PHARMACEUTICALS CO., LTD, priority 2021, dated 2026).)
